Literature values, collected in patent publication US8569299B2, “Prolylcarboxypeptidase inhibitors” (Merck Sharp & Dohme Corp, priority 2010, dated 2013).
Like-named read-outs stand apart in the source and are kept apart here. Where no end group is shown, it is not given here.

Legend:
[1] = in vivo
[2] = overnight fasted animals, 2.5 ug
[3] = systemic administration, obese leptin deficient mice
[4] = intracerebroventricular, rats

| Compound | weight loss of body weight for drug compared to placebo [1] | also measured |
| --- | --- | --- |
| CCN[C@@H](C)Cc1cccc(C(F)(F)F)c1 [dexfenfluramine] | 5%-10% | – |
| CCCCCCCCCCC[C@@H](C[C@@H]1OC(=O)[C@H]1CCCCCC)OC(=O)[C@H](CC(C)C)NC=O [orlistat] | 5%-10% | – |
| CC(C)(N)Cc1ccccc1 [phentermine] | 5%-10% | – |
| CC(C)CC(N(C)C)C1(c2ccc(Cl)cc2)CCC1 (stereo not shown) [sibutramine] | 5%-10% | – |
| alpha-melanocyte-stimulating hormone (SYSMEHFRWGKPV; ends and bridges not checked; UniProt P01189 138-150, looked up) [α-MSH1-13, peptide hormone derived from POMC, substrate of PRCP] | – | reduction in food intake relative to control animals [2]: 40% |
| t-butyl carbamate-prolyl prolinal [BPP] | – | overnight food intake [3]: suppression of overnight food intake; overnight food intake [4]: suppression of overnight food intake |
